Assay results from US20070172529A1, “Herbal formulation for the treatment of piles” (COUNCIL OF SCIENTIFIC AND INDUSTRIAL RESEARCH, priority 2004, published 2007).
Marks after values point to notes of the source that are not given here.

Experiments:
[1] = system: Bacillus Substilis; details: against Bacillus Substilis; cited from earlier work
[2] = system: force-induced pain; assay: Analgesy-meter force-induced pain in rats; type: in vivo, rat; details: mean ± SEM, six rats
Experimental: Analgesy-meter induced pain: The analgesic effect of the powder was tested in rat of either sex, using an Ugo Basile Analgesy meter (No. 32725) (21025 Comerio-[…], Italy). This method involves the application of force to the paw of the rat using the Analgesy-meter, which exerts a force that increases at a constant rate. The rat was gently placed between the plinth and plunger. The instrument was switched on and a constant motor rate was used to drive the plunger on to the paw of the rat. When the rat struggles, the instrument is switched off and the force at which the animal felt pain was read on a scale calibrated in grams ×10 by a pointers. The pre-treatment and the after treatment weight causing pain was determined for each rat. […]

[3] = system: λ carrageenin induced edema; assay: λ carrageenin induced paw edema in rats; type: in vivo, rat
Experimental: Carrageenin induced paw edema: Rats were injected with 0.1 ml of 1% λ carrageenin (St.-Louis, Mo.) into the subplantar side of the left hind paw. The paw was marked with ink at the level of the lateral malleolus and dipped in perspex cell up to this mark. The paw volume was measured with an Ugo Basile Plethysmometer (No: 61402) (7140 Comerio-varese, Italy) immediately and 3 h after injecting the λ carrageenin suspension. […] Significant reductions in the paw volume compared to vehicle treated control animals were considered as anti-inflammatory response. Percentage inhibition of oedema was calculated as follows: % Inhibition=(1−VT/VC)×100
VT=Paw volume in drug treated rats, VC=Paw volume in control group of rats.

[4] = system: interleukin-1 production; details: Chem. Pharm. Bull. 1992, 40,2041; cited from earlier work

## C[C@@H]1O[C@@H](Oc2ccc(CN=C=S)cc2)[C@H](O)[C@H](O)[C@H]1O [4-(α-L Rhamnosyloxy benzylisothiocynate]
[1]
  Antibacterial activity: exhibited antibacterial activity

## CC(C)Cc1ccc(C(C)C(=O)O)cc1 (stereo not drawn) [Ibuprofen]
[2]; 100 mg/kg
  Weight causing pain (g) After Administration: 161.1 ± 7.9^b g
[2]; pre-treatment value of 100 mg/kg group
  Weight causing pain (g) Before Administration: 84.7 ± 5.7 g

## COc1ccc2c(c1)c(CC(=O)O)c(C)n2C(=O)c1ccc(Cl)cc1 [Indomethacin]
[3]; 100 mg/kg, mean ± SEM, six rats
  Paw volume (ml) at 3h λ carrageenin: 0.15 ± 0.02 mL
[3]; Rattus norvegicus, 3 h after λ carrageenin, vs control
  inhibition at 100 mg/kg: 84.7%

## Pongapipnone A
[4]
  Inhibition of interleukin-1 production: inhibited interleukin-1 production
